# Measurements published in ChEMBL document CHEMBL3826967, “Small molecule non-peptide inhibitors of botulinum neurotoxin serotype E: Structure-activity relationship and a pharmacophore model” (Bioorg Med Chem, 2016).
# Biological target: T1, Botulinum neurotoxin type E (Clostridium botulinum, UniProt Q00496)
# T1 sequence (Q00496 whole entry): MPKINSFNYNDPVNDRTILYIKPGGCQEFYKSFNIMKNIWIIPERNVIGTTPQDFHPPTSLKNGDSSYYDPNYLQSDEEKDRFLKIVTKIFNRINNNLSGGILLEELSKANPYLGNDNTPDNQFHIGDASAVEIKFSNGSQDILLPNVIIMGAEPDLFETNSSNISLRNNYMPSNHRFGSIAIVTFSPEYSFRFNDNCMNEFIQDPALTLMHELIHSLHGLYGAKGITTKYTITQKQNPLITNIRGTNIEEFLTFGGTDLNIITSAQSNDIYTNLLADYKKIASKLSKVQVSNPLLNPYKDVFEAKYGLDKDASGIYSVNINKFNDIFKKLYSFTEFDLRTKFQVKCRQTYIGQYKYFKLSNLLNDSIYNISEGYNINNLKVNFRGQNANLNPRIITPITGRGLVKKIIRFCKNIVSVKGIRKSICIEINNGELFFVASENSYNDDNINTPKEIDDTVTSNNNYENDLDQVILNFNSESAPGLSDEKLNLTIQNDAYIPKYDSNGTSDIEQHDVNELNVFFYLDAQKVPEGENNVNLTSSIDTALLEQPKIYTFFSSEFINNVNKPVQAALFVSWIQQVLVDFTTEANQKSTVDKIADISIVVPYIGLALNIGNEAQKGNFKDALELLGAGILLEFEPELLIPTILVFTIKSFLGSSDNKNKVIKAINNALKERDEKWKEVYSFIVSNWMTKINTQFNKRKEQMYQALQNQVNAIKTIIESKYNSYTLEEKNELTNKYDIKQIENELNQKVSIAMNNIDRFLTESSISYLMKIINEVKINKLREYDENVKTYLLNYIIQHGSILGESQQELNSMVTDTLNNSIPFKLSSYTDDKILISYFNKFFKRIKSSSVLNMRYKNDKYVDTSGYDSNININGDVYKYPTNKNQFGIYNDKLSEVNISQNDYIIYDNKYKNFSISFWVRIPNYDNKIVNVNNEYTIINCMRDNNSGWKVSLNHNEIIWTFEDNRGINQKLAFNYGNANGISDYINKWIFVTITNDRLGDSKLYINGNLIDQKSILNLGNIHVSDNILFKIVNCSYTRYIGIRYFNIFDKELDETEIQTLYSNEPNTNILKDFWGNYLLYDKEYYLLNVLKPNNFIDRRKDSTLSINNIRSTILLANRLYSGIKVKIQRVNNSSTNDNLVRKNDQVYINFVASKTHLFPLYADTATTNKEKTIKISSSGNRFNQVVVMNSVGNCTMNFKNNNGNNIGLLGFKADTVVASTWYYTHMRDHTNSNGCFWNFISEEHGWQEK
# Assay: (§1) Inhibition of endopeptidase activity of Clostridium botulinum BoNT/E light chain using SNAP-25 as substrate after 15 mins by HPLC analysis
row,SMILES,IC50
1,O=c1c2cc(Cl)ccc2c2ccc(Cl)cc2c(=O)n1-c1ccc2c(c1)Cc1cc(Cl)cc(Cl)c1-2,9.8 µM
2,O=C(Nc1ccccc1)c1cc2cc3ccccc3cc2cc1O,2.4 µM
3,O=C(O)c1cc(Cl)ccc1-c1ccc(Cl)cc1C(=O)Nc1ccc2c(c1)Cc1cc(Cl)cc(Cl)c1-2,3 µM
4,O=C(O)c1cc([N+](=O)[O-])ccc1-c1ccc([N+](=O)[O-])cc1C(=O)Nc1ccc2c(c1)Cc1ccccc1-2,2.7 µM
5,O=C(O)c1cc(Cl)ccc1-c1ccc(Cl)cc1C(=O)Nc1ccc2c(c1)Cc1ccccc1-2,3.2 µM

# Biological target: T2, Botulinum neurotoxin type E (Clostridium botulinum) (UniProt Q00496)
# T2 sequence (whole entry): T1 sequence (Q00496 whole entry)
# Assay: as §1
row,SMILES,inhibition
1,O=C(O)c1cc(Cl)ccc1-c1ccc(Cl)cc1C(=O)Nc1ccc2c(c1)Cc1cc(Cl)cc(Cl)c1-2,Dose-dependent effect

# Biological target: T1, Botulinum neurotoxin type E
# Assay: Inhibition of protease activity of Clostridium botulinum BoNT/E light chain using SNAP-25 as substrate after 15 mins by Dixon plot analysis
row,SMILES,Ki
1,O=C(O)c1ccccc1C(=O)c1ccc2c(c1)Cc1ccccc1-2,1290 nM

# Biological target: T2, Botulinum neurotoxin type E (Clostridium botulinum)
# Assay: Inhibition of endopeptidase activity of Clostridium botulinum BoNT/E light chain using SNAP-25 as substrate at 20 uM after 15 mins by HPLC analysis
row,SMILES,inhibition
1,O=C(O)c1ccccc1C(=O)c1ccccc1,15.9%
2,O=C(O)C1CCCCC1C(=O)Nc1ccc2c(c1)Cc1ccccc1-2 (centres undefined),12%
3,O=C1c2ccccc2-c2ccc(NC(=O)C3CCCCC3C(=O)O)cc21 (centres undefined),18.3%
4,O=C(O)c1ccccc1-c1ccccc1C(=O)Nc1ccc2c(c1)Cc1ccccc1-2,37.2%
5,O=C(O)c1cccc(F)c1C(=O)c1ccc2ccccc2c1,43.9%
6,O=C(O)c1ccccc1C(=O)c1ccc(O)cc1O,14.7%
7,Cc1cc2c(cc1C(=O)c1ccccc1C(=O)O)CCCC2,24.8%
8,O=C(O)c1ccccc1C(=O)c1ccc2c3c(cccc13)CC2,11.5%
9,O=c1c2cc(Cl)ccc2c2ccc(Cl)cc2c(=O)n1-c1ccc2c(c1)Cc1cc(Cl)cc(Cl)c1-2,68.9%
10,O=C(Nc1ccccc1)c1cc2cc3ccccc3cc2cc1O,70.1%
11,O=C(O)c1ccccc1C(=O)CCC(=O)c1ccccc1C(=O)O,21.2%
12,O=C(O)c1ccccc1-c1ccccc1C(=O)Nc1ccc2c(c1)C(O)c1ccccc1-2 (centres undefined),20%
13,O=C(O)c1ccccc1C(=O)Nc1cc2c(cc1Br)-c1ccccc1C2=O,26.2%
14,CNc1ccc(C(=O)c2ccccc2C(=O)O)cc1[N+](=O)[O-],14.1%
15,Cc1cccc(C)c1NC(=S)NNC(=O)c1ccncc1,28%
16,O=C(Nc1ccc2c(c1)C(=O)c1ccccc1-2)c1ccccc1,12.7%
17,O=C(O)c1ccccc1C(=O)c1ccc(-c2ccccc2)cc1,37.8%
18,O=C(O)c1cc(Cl)ccc1-c1ccc(Cl)cc1C(=O)Nc1ccc2c(c1)Cc1cc(Cl)cc(Cl)c1-2,79.1%
19,CC(=O)Nc1cc2c(cc1N)-c1ccccc1C2,13.7%

row,SMILES,inhibition
1,O=c1c2cc([N+](=O)[O-])ccc2c2ccc([N+](=O)[O-])cc2c(=O)n1-c1ccc2c(c1)Cc1ccccc1-2,24.7%
2,O=C(O)c1ccccc1C(=O)c1ccc(Cl)cc1,0%
3,O=C(NNC(=S)Nc1ccccc1Cl)c1ccncc1,19%
4,O=C(O)c1cc([N+](=O)[O-])ccc1-c1ccc([N+](=O)[O-])cc1C(=O)Nc1ccc2c(c1)Cc1ccccc1-2,82%
5,O=c1c2cc(Cl)ccc2c2ccc(Cl)cc2c(=O)n1-c1ccc2c(c1)Cc1ccccc1-2,48%
6,O=C(O)c1ccccc1C(=O)c1cc(Cl)cc(Cl)c1O,19.2%
7,O=C(O)c1ccc(C(=O)c2ccccc2C(=O)O)cc1,13.7%
8,O=C(O)/C=C/C(=O)Nc1ccc2c(c1)Cc1cc([N+](=O)[O-])ccc1-2,19.5%
9,O=C(O)c1ccccc1C(=O)Nc1ccc2c(c1)C(=O)c1ccccc1-2,14.8%
10,COc1ccc2c(c1)Cc1cc(NC(=O)c3ccccc3-c3ccccc3C(=O)O)ccc1-2,20.9%
11,O=C1c2ccccc2-c2cc(Br)c(NC(=O)C3CCCCC3C(=O)O)cc21 (centres undefined),19.3%
12,O=C(O)c1ccccc1-c1ccccc1C(=O)Nc1ccc2c(c1)Cc1cc(F)ccc1-2,47.6%
13,c1ccc2c(c1)Cc1ccccc1-2,17.3%
14,O=C(O)c1ccccc1C(=O)c1ccc2c(c1)Cc1ccccc1-2,80.1%
15,O=C(O)c1ccccc1-c1ccccc1C(=O)Nc1ccc2c(c1)C(=O)c1ccccc1-2,20.2%
16,O=C(O)c1ccccc1C(=O)c1ccc2oc(O)nc2c1,35%
17,O=C(O)c1cc(Cl)ccc1-c1ccc(Cl)cc1C(=O)Nc1ccc2c(c1)Cc1ccccc1-2,88.3%
18,O=C(O)c1ccccc1C(=O)c1ccc2c(c1)CCC2,16.3%
